Data on three compounds can be found in ChEMBL document CHEMBL5696442, “Discovery of type II inhibitors of TGFβ-activated kinase 1 (TAK1) and mitogen-activated protein kinase kinase kinase kinase 2 (MAP4K2)” (J Med Chem, 2015).

Experiment [1] addresses T1, Mitogen-activated protein kinase kinase kinase 7 (Homo sapiens) (UniProt O43318).
T1 sequence (whole entry): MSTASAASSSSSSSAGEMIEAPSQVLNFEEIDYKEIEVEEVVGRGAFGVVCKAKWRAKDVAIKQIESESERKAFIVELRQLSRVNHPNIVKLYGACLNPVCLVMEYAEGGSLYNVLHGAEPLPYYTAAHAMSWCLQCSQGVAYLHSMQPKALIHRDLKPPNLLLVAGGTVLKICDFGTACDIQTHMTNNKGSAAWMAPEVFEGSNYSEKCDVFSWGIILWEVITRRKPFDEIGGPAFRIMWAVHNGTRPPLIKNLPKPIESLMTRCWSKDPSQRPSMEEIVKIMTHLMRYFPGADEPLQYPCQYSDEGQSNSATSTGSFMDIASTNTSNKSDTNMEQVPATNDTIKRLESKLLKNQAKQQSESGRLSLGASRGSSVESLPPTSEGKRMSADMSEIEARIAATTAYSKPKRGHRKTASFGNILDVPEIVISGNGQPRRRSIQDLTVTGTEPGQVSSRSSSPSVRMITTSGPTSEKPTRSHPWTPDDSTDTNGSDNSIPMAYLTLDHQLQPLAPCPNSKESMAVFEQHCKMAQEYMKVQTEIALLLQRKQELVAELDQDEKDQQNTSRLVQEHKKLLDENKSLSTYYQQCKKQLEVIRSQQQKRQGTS
Description: Inhibition of TAK1 (unknown origin) at 1 uM by Ambit Kinomescan binding assay relative to control; values are per cent of control.

Experiment [2] has as its target Serine/threonine-protein kinase MRCK gamma (Homo sapiens) (UniProt Q6DT37). In words: Inhibition of DMPK2 (unknown origin) at 1 uM by Ambit Kinomescan binding assay relative to control; values are per cent of control.
In experiment [3] the target is T2, Serine/threonine-protein kinase ULK1 (Homo sapiens) (UniProt O75385).
T2 sequence (whole entry): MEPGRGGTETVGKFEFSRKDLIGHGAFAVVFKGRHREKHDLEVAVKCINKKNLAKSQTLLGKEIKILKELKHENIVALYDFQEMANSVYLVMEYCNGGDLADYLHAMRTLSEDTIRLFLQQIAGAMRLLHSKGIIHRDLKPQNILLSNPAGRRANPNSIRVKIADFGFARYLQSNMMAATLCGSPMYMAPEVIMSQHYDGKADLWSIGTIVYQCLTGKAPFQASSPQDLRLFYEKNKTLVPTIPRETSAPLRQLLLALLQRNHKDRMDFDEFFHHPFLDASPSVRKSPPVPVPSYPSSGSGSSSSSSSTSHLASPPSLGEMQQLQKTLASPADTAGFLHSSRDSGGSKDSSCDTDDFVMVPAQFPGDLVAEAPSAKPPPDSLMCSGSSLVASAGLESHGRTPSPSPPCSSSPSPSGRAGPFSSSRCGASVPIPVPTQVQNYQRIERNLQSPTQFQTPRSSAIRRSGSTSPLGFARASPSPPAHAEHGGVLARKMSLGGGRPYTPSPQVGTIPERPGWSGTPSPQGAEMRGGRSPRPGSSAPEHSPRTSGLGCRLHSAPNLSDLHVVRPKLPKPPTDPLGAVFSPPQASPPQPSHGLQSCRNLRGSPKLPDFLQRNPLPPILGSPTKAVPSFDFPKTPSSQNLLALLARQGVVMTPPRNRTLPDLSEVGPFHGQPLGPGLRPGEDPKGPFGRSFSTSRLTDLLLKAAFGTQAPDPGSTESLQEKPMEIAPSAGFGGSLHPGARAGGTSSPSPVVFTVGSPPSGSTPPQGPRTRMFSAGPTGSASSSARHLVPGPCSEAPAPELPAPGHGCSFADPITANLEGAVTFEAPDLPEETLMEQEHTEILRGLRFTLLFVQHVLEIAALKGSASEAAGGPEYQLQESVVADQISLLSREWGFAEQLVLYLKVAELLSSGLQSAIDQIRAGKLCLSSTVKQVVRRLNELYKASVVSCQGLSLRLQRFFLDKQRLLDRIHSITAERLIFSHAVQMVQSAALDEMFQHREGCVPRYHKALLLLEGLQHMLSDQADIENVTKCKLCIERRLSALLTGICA
In words: Inhibition of ULK1 Lys2 labeling site in human A-375 cells at 5 uM by KiNativ Profiling analysis relative to control. The format is cell-based.

The target in experiment [4] is Serine/threonine-protein kinase Nek4 (Homo sapiens) (UniProt P51957). Description: Inhibition of NEK4 Lys2 labeling site in human A-375 cells at 0.5 uM by KiNativ Profiling analysis relative to control. The format is cell-based.
In experiment [5] the target is Homeodomain-interacting protein kinase 3 (Homo sapiens) (UniProt Q9H422). In words: Inhibition of HIPK3 (unknown origin) at 1 uM by Ambit Kinomescan binding assay relative to control; values are per cent of control.
In experiment [6] the target is Cyclin-dependent kinase 8 (Homo sapiens) (UniProt P49336). Description: Inhibition of CDK8 Lys2 labeling site in human A-375 cells at 0.5 uM by KiNativ Profiling analysis relative to control. The format is cell-based.
The target in experiment [7] is Casein kinase I isoform delta (Homo sapiens) (UniProt P48730). In words: Inhibition of CK1d Lys2 labeling site in human Huh-7 cells at 1 uM by KiNativ Profiling analysis relative to control. The format is cell-based.
In experiment [8] the target is Serine/threonine-protein kinase ATR (Homo sapiens) (UniProt Q13535). In words: Inhibition of ATR in human Huh-7 cells at 1 uM by KiNativ Profiling analysis relative to control. The class given is cell-based.
For experiment [9], the target named is Phosphatidylinositol 4-kinase alpha (Homo sapiens) (UniProt P42356). Description: Inhibition of PI4KA ATP labeling site in human Huh-7 cells at 1 uM by KiNativ Profiling analysis relative to control. The format is cell-based.
The target of experiment [10] is T3, Dual specificity mitogen-activated protein kinase kinase 6 (Homo sapiens) (UniProt P52564).
T3 sequence (whole entry): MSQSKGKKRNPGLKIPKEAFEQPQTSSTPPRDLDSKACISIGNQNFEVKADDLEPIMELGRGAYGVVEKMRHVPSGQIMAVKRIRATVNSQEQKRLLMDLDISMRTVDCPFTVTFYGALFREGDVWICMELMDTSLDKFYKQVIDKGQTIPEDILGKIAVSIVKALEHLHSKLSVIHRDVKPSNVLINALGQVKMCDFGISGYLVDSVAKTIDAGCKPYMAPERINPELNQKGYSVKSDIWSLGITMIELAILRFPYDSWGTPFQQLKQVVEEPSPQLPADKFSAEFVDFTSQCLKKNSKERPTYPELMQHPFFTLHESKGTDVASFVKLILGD
In words: Inhibition of MAP2K6 ACT labeling site in human Huh-7 cell lysate at 1 uM by KiNativ Profiling analysis relative to control. The format is subcellular.

Experiment [11] addresses Casein kinase I isoform delta (Homo sapiens) (UniProt P48730). Description: Inhibition of CK1delta Lys2 labeling site in human Huh-7 cell lysate at 1 uM by KiNativ Profiling analysis relative to control. The class given is subcellular.

A word on the residual activity: it is the activity still measured, relative to the control. A low value points to little activity left. What is called inhibition is the drop in the measured response relative to a control, in per cent.

Chain of Casein kinase I isoform delta (Homo sapiens) (P48730 whole entry, looked up, canonical isoform): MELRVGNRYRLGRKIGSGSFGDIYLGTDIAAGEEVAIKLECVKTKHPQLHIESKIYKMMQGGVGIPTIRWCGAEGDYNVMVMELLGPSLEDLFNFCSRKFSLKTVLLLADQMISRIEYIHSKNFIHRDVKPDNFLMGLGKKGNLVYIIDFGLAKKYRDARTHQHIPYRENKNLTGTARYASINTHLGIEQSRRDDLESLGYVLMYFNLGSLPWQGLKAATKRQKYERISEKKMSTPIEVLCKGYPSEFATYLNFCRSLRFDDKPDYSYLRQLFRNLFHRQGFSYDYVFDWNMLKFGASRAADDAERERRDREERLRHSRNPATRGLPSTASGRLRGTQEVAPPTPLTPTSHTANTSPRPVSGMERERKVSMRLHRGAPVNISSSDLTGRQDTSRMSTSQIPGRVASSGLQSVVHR
Chain of Cyclin-dependent kinase 8 (Homo sapiens) (P49336 whole entry, canonical isoform): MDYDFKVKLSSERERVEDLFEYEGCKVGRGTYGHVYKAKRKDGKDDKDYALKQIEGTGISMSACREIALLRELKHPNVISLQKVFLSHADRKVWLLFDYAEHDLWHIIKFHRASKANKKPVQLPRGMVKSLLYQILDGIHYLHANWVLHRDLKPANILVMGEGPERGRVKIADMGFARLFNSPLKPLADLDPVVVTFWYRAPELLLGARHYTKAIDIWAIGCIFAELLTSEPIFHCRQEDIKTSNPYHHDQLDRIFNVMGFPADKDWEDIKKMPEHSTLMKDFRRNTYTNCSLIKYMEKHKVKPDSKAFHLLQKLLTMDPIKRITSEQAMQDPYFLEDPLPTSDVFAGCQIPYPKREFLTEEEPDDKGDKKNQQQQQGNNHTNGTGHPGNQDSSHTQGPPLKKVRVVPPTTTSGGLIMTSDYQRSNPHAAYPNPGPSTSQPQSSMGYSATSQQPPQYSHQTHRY
Chain of Phosphatidylinositol 4-kinase alpha (Homo sapiens) (P42356 whole entry, looked up): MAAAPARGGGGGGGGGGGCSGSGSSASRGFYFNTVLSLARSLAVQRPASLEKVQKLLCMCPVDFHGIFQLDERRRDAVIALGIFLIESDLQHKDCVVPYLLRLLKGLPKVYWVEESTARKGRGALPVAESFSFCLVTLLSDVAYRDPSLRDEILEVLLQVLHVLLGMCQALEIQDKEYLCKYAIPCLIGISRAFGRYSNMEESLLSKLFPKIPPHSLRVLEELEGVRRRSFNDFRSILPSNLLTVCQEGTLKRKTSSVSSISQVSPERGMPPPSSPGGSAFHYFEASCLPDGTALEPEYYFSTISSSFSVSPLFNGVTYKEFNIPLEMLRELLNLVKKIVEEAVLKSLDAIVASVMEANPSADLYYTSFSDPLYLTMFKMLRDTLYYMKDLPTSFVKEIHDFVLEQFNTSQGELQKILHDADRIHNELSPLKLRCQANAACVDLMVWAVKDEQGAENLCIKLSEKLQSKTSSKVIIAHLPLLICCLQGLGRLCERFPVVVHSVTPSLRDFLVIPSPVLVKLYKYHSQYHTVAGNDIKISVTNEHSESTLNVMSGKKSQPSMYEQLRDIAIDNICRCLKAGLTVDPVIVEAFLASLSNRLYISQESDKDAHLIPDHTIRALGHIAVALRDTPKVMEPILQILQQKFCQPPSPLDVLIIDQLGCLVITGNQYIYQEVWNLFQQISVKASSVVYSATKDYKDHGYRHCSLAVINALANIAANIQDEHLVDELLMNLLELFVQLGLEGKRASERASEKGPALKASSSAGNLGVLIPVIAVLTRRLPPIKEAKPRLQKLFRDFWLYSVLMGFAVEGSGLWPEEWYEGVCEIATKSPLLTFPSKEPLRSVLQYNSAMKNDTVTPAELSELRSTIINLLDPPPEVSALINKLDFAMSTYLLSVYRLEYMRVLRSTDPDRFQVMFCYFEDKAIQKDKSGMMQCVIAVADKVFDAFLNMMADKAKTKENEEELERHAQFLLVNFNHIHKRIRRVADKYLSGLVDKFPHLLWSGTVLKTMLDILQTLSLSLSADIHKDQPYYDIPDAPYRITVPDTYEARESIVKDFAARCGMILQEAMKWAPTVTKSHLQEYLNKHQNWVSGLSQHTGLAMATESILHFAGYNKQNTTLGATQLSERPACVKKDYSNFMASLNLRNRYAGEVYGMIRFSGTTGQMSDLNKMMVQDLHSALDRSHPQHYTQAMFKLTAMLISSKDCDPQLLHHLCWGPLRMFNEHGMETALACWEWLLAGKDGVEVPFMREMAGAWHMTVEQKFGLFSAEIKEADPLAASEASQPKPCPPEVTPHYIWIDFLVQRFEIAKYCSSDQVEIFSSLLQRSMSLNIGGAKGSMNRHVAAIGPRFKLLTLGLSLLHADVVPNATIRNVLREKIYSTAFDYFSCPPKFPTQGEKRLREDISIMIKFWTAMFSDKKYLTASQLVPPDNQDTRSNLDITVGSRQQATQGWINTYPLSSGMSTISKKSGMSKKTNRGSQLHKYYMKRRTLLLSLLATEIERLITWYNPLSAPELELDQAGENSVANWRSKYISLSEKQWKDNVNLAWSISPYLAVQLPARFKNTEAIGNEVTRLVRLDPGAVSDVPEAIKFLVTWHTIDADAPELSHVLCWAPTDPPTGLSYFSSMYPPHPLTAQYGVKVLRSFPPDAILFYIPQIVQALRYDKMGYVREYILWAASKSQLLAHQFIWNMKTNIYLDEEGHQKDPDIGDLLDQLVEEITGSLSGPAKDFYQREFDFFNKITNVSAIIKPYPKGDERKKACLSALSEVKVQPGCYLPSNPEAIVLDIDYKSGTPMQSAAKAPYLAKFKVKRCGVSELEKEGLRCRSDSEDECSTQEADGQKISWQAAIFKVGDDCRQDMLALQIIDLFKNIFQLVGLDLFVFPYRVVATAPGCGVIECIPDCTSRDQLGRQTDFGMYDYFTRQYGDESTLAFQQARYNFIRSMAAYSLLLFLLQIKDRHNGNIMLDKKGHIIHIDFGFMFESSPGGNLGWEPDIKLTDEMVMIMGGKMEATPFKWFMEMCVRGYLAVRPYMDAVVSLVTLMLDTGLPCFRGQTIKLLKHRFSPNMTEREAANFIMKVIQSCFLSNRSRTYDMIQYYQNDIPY
Chain of Homeodomain-interacting protein kinase 3 (Homo sapiens) (Q9H422 whole entry, looked up): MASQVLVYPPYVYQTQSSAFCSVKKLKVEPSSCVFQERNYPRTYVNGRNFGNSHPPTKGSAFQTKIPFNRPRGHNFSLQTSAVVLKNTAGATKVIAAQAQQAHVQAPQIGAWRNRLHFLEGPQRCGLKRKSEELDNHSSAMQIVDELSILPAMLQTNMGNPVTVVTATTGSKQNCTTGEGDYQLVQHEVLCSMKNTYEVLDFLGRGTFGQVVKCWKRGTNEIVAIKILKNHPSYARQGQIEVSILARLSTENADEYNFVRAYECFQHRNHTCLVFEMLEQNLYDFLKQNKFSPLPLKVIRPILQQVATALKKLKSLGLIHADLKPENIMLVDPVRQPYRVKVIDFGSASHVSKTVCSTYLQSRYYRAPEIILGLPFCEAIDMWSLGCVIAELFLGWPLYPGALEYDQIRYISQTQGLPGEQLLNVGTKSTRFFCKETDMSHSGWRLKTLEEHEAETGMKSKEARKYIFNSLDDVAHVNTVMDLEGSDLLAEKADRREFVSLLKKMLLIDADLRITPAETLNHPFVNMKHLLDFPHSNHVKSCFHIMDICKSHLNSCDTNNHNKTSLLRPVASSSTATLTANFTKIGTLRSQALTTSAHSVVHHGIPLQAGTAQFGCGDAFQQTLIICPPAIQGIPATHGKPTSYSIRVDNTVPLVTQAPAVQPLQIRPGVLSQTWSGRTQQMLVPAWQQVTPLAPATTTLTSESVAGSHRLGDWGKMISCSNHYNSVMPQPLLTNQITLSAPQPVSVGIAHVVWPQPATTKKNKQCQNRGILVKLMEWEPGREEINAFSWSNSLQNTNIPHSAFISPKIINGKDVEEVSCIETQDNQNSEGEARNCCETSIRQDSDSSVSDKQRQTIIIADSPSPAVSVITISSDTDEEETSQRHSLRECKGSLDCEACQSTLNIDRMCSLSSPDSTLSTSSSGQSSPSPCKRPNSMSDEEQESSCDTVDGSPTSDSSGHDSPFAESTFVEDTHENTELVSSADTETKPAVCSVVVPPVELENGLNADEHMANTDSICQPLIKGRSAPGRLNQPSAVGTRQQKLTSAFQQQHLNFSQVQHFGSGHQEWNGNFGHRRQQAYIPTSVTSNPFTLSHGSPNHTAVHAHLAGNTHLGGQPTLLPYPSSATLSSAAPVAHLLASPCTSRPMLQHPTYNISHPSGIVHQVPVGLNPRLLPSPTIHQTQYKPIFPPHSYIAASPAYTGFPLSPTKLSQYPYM
Chain of Serine/threonine-protein kinase Nek4 (Homo sapiens) (P51957 whole entry, looked up): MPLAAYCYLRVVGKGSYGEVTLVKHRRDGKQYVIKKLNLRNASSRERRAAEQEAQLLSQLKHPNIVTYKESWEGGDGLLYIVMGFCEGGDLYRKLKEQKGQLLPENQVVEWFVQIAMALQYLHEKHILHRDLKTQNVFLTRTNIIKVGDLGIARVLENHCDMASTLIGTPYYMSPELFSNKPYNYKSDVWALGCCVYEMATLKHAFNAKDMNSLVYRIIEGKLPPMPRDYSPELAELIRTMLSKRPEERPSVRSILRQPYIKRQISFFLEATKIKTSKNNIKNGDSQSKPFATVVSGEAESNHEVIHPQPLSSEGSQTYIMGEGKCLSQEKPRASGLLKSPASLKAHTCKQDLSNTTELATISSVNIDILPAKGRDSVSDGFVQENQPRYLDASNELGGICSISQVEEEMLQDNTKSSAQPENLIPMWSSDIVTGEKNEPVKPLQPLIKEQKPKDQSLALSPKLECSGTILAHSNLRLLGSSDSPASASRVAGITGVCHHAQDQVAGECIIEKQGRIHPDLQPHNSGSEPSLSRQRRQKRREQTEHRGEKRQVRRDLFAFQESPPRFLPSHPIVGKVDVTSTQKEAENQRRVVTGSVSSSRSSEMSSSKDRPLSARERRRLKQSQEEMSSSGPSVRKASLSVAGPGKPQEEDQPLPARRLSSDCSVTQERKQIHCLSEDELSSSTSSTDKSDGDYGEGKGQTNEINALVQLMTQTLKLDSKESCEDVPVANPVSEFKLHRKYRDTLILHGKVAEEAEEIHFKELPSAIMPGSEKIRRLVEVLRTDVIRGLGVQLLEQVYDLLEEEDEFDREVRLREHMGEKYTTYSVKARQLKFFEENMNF

Take `CCN1CCN(Cc2ccc(NC(=O)c3ccc(C)c(/C=C/c4cnc5[nH]ccc5c4OC)c3)cc2C(F)(F)F)CC1`: in [1], the percent of control was 1.2%. For the same compound, the residual activity in [2] was determined as 76%; in [5], 80%. Further, the inhibition in experiment [3] is -1.3%; in experiment [4], 8.6%.

As to `CCN1CCN(Cc2ccc(NC(=O)c3ccc(C)c(Oc4ccnc5[nH]ccc45)c3)cc2C(F)(F)F)CC1`, the inhibition in experiment [6] amounted to 51.2%.

In the case of `CNc1cc(Oc2cc(C(=O)Nc3cc(N4CCN(C)CC4)cc(C(F)(F)F)c3)ccc2C)ncn1`, the inhibition in [7] is 39.1%; in [8] it was 29.3%; in experiment [9] it was 29.8%; in experiment [10], -1.2%; in experiment [11], 0.6%.
